According to US20090247770A1, “PROCESS FOR MAKING LACTAM TACHYKININ RECEPTOR ANTAGONISTS” (priority 2006, published 2009):
Where a name gives a salt, the structure may show the parent alone. Read-outs that look alike come from different tables or passages of the source.

How the values were obtained:
[1] = Solid state chemical stability of crystalline salts; type: physicochemical
[2] = Solid state physical stability (form conversion) of crystalline salts; type: physicochemical; conditions: No form conversion after 1 week at 40° C./ambient RH, 40° C./75% RH, and 80° C.
[3] = Relative thermodynamic stability of crystal forms; type: physicochemical; conditions: comparison of besylate crystal forms
Source text: The benzyloxycarbonyl (Cbz) group of 16 was cleaved to give 1 by a noble transition metal, such as Pd/C, […], Pt/C, catalyzed hydrogenation in an alcoholic solvent such as methanol, ethanol, or the like, or by acidic solvolysis with a hydrogen halide such as HCl, HBr, or HI or an equivalent such as combination of a metal or an ammonium halide and an acid trifluoroacetic acid, methanesulfonic acid, or the like in organic solvent such as acetonitrile, toluene, or acetic acid at a temperature from about 0° C. to about 60° C. If this deprotection of Cbz group was carried out under acidic condition, 1 could be obtained from 14a,b or 15a,b in a one-pot manner. Benzyl halide, which was a side product of deprotection of Cbz group, was easily removed from the reaction mixture by back-extraction with heptane. Free base of 1 was difficult to be extracted from the aqueous layer to organic layer because of its amphipathic physical property. […] Crude free base was purified by crystallization as a benzenesulfonate salt from IPA-IPAc-heptane solvent system. The benzenesulfonate salt has two crystal forms Form I or II. […] The benzenesulfonate salt can be recrystallized from acetonitrile and alcohol such as methanol, ethanol, or isopropanol, if necessary.

[4] = Hygroscopicity of crystalline salts of the compound of Formula Ia; type: physicochemical

SMILES	melting point	Solid State Chemical Stability [1]	Solid State Physical Stability [2]	Thermodynamic stability relative to other crystal form [3]	Hygroscopicity (25° C.) [4]	Solid State Chemical Stability ([1]; listed as anhydrous form I)	Solid State Physical Stability ([2]; listed as anhydrous form I)
C[C@@H](O[C@H]1CC[C@@H]([C@H]2C[C@@](C)(N)C(=O)N2)[C@@H]1c1ccc(F)cc1)c1cc(C(F)(F)F)cc(C(F)(F)F)c1 (as salt: succinate) (hydrate or solvate)	187 °C	–	–	–	–	–	–
C[C@@H](O[C@H]1CC[C@@H]([C@H]2C[C@@](C)(N)C(=O)N2)[C@@H]1c1ccc(F)cc1)c1cc(C(F)(F)F)cc(C(F)(F)F)c1 [Besylate Anhydrous Form II]	–	Stable	Stable^3	more thermodynamically stable than Form 1	–	–	–
C[C@@H](O[C@H]1CC[C@@H]([C@H]2C[C@@](C)(N)C(=O)N2)[C@@H]1c1ccc(F)cc1)c1cc(C(F)(F)F)cc(C(F)(F)F)c1 [Besylate Anhydrous Form I]	–	Stable	Stable^3	more thermodynamically stable than form II	consistently non-hygroscopic	physically and chemically stable	physically and chemically stable
C[C@@H](O[C@H]1CC[C@@H]([C@H]2C[C@@](C)(N)C(=O)N2)[C@@H]1c1ccc(F)cc1)c1cc(C(F)(F)F)cc(C(F)(F)F)c1 [Succinate]	–	–	Stable	–	–	–	–
